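Test compounds were applied to cells in 96-well plates for 48 hours at 5 doses. GI50 marks 50% less growth.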 Active and inactive are the calls of the source. No stated cut-off is given here; in the data, active = GI50 up to about 1.1 µM and inactive = higher.

Among the test systems are UO-31; MCF7; Hs-578T; DU-145; SK-MEL-2; NCI-H522; SF-268; PC-3; SK-OV-3; EKVX; A498; NCI-H23; A549; U-251; ACHN; UACC-257; T47D; KM12; HOP-62.
Common to all, as to assay: growth of human tumour cells (NCI), 48 h

Turning to `C[N+](CCCl)(CCCl)Cc1cccc2cccc([N+](=O)[O-])c12`, the GI50 was > 100 µM (inactive) in the experiment with UO-31; 38.2 µM (inactive) in the experiment on MCF7; > 100 µM (inactive) with Hs-578T; > 100 µM (inactive) with DU-145; > 100 µM (inactive) in the experiment on SK-MEL-2; 73.1 µM (inactive) in the experiment on NCI-H522. The GI50 in the experiment with SF-268 is > 100 µM (inactive); in the experiment with PC-3 it was 85.3 µM (inactive); in the experiment with SK-OV-3, > 100 µM (inactive); with EKVX it was > 100 µM (inactive); in the experiment with A498, > 100 µM (inactive); in the experiment with NCI-H23, 30 µM (inactive). Also, the GI50 in the experiment with A549 is 97.3 µM (inactive); in the experiment on U-251 it was > 100 µM (inactive); in the experiment with ACHN, 44.5 µM (inactive); in the experiment with UACC-257, 37.2 µM (inactive); in the experiment on T47D, 42.7 µM (inactive); in the experiment on KM12 it was > 100 µM (inactive). In the experiment with HOP-62, the GI50 was 89.1 µM (inactive).
As for `O=C(CCN1CCCCC1)c1csc2ccccc12`, the GI50 with UO-31 was > 100 µM (inactive); in the experiment with MCF7 it was 20 µM (inactive); with Hs-578T, > 100 µM (inactive); in the experiment on DU-145, > 100 µM (inactive); with SK-MEL-2, > 100 µM (inactive); in the experiment with NCI-H522 it was > 100 µM (inactive). Moreover, the GI50 in the experiment on SF-268, in the experiment with PC-3, in the experiment with SK-OV-3, in the experiment on EKVX, with A498 and with NCI-H23 was > 100 µM (inactive) in each case. The GI50 was > 100 µM (inactive) in the experiment with A549; > 100 µM (inactive) with U-251; > 100 µM (inactive) in the experiment on ACHN; > 100 µM (inactive) in the experiment with UACC-257; 45.7 µM (inactive) in the experiment with T47D; 33.1 µM (inactive) in the experiment on KM12. For the same molecule, the GI50 with HOP-62 is > 100 µM (inactive).
With `Cc1ccc(O)c(C(c2cccc(C(c3cc(C)ccc3O)c3cc(C)ccc3O)c2)c2cc(C)ccc2O)c1`, the GI50 in the experiment on UO-31 is 1.91 µM (inactive); with MCF7 it was 1.58 µM (inactive); in the experiment on Hs-578T it was 1.56 µM (inactive); in the experiment on DU-145, 1.44 µM (inactive); in the experiment on SK-MEL-2, 2.1 µM (inactive); in the experiment with NCI-H522 it was 1.64 µM (inactive). Besides, the GI50 is 1.6 µM (inactive) with SF-268; 1.77 µM (inactive) in the experiment with PC-3; 1.87 µM (inactive) in the experiment on SK-OV-3; 1.82 µM (inactive) in the experiment on EKVX; 1.53 µM (inactive) in the experiment with A498; 1.75 µM (inactive) with NCI-H23. The GI50 was 1.97 µM (inactive) in the experiment with A549; 1.77 µM (inactive) with U-251; 1.73 µM (inactive) in the experiment with ACHN; 1.94 µM (inactive) in the experiment on UACC-257; 1.98 µM (inactive) in the experiment with T47D; 1.65 µM (inactive) in the experiment on KM12. The GI50 in the experiment on HOP-62 was 2.06 µM (inactive).
`Cc1cc(O)c2c(c1)CC(O)C1=C2C(=O)c2c(O)ccc(OC3CC(O)C(OC4CC(OC5CCC(O)C(C)O5)C(O)C(C)O4)C(C)O3)c2C1=O` (stereo not given): the GI50 in the experiment with UO-31 was 1.5 µM (inactive); in the experiment on MCF7, 1.39 µM (inactive); in the experiment with Hs-578T it was 2.62 µM (inactive); in the experiment with DU-145 it was 1.72 µM (inactive); in the experiment with SK-MEL-2 it was 1.58 µM (inactive); in the experiment on NCI-H522, 0.964 µM (active). In addition, the GI50 in the experiment on SF-268 is 1.74 µM (inactive); with PC-3 it was 1.71 µM (inactive); in the experiment with SK-OV-3 it was 2.33 µM (inactive); in the experiment with EKVX, 1.89 µM (inactive); in the experiment with A498 it was 2.33 µM (inactive); in the experiment with NCI-H23, 1.83 µM (inactive). In addition, the GI50 with A549 is 2.33 µM (inactive); in the experiment with U-251, 1.32 µM (inactive); with ACHN, 1.58 µM (inactive); with UACC-257, 1.57 µM (inactive); with T47D, 2.15 µM (inactive); in the experiment on KM12, 1.74 µM (inactive). Further, the GI50 in the experiment on HOP-62 is 1.59 µM (inactive).
For the molecule `CC1=NC2(CCCCC2)N(Cl)C(=O)C1SC#N` (stereo not given), the GI50 in the experiment on UO-31 was 18.8 µM (inactive); with MCF7, 23.6 µM (inactive); with Hs-578T, 41 µM (inactive); in the experiment on DU-145, 25.2 µM (inactive); in the experiment with SK-MEL-2, 20 µM (inactive); in the experiment on NCI-H522, 16.7 µM (inactive). In addition, the GI50 with SF-268 was 18 µM (inactive); with PC-3, 15.8 µM (inactive); in the experiment with SK-OV-3, > 10 µM (inactive); in the experiment with EKVX it was 17.5 µM (inactive); in the experiment with A498, > 100 µM (inactive); with NCI-H23 it was 25.1 µM (inactive). Further, the GI50 in the experiment with A549 is 0.0504 µM (active); in the experiment on U-251, 19.4 µM (inactive); in the experiment on ACHN, 17.7 µM (inactive); in the experiment with T47D, 21.6 µM (inactive); in the experiment on KM12, 21.4 µM (inactive); with HOP-62, 22.9 µM (inactive).
In the case of `COC(=O)C1(SC)C2CCC3C2CCC31` (stereo not given), the GI50 in the experiment on UO-31, in the experiment on MCF7, in the experiment on Hs-578T, in the experiment with DU-145, in the experiment with SK-MEL-2 and in the experiment on NCI-H522 was > 100 µM (inactive) in each case. The GI50 with SF-268, in the experiment on PC-3, in the experiment on SK-OV-3, in the experiment with EKVX, in the experiment with A498 and in the experiment with NCI-H23 was > 100 µM (inactive) throughout. Also, the GI50 in the experiment on A549, in the experiment with U-251, in the experiment with ACHN, with UACC-257, in the experiment on T47D and in the experiment with HOP-62 was > 100 µM (inactive) in each case.
Consider `O=c1[nH]c(=S)[nH]cc1CN1CCOCC1`, for which the GI50 in the experiment on UO-31, with MCF7, in the experiment with Hs-578T, in the experiment on DU-145, in the experiment with SK-MEL-2 and in the experiment on NCI-H522 was > 100 µM (inactive) in each case. The GI50 with SF-268, in the experiment with PC-3, in the experiment with SK-OV-3, in the experiment with EKVX, with A498 and with NCI-H23 was > 100 µM (inactive) throughout. The GI50 with A549, with U-251, in the experiment on ACHN, with UACC-257, in the experiment with T47D and in the experiment with KM12 was > 100 µM (inactive) throughout. The GI50 in the experiment with HOP-62 was > 100 µM (inactive).
Take `COc1ccc(/N=N/c2ccc3oc(=O)c(C(=O)Nc4ccc(Cl)cc4)cc3c2)cc1`: the GI50 in the experiment with UO-31 was 2.24 µM (inactive); in the experiment with MCF7, 3.17 µM (inactive); with Hs-578T, > 10 µM (inactive); with DU-145, > 10 µM (inactive); with SK-MEL-2 it was > 10 µM (inactive); in the experiment with NCI-H522, > 10 µM (inactive). The GI50 in the experiment on SF-268 is 3.72 µM (inactive); in the experiment on PC-3 it was 2.56 µM (inactive); with SK-OV-3, > 10 µM (inactive); with EKVX it was 6.15 µM (inactive); in the experiment with A498, > 10 µM (inactive); with NCI-H23, 6.38 µM (inactive). Moreover, the GI50 is 5.4 µM (inactive) with U-251; > 10 µM (inactive) with ACHN; > 10 µM (inactive) with UACC-257; 6.76 µM (inactive) in the experiment with T47D; 4.32 µM (inactive) in the experiment on KM12; > 10 µM (inactive) in the experiment with HOP-62.
On to `O=C1C=C(Nc2ccc(Br)cc2)c2ccccc2/C1=N/O`, for which the GI50 in the experiment with UO-31 is 6.64 µM (inactive); in the experiment with MCF7, 4.16 µM (inactive); with Hs-578T, 3.2 µM (inactive); in the experiment with DU-145 it was 1.77 µM (inactive); with SK-MEL-2 it was 1.5 µM (inactive); in the experiment with NCI-H522, 28.1 µM (inactive). Also, the GI50 was 5.6 µM (inactive) in the experiment on SF-268; 8.47 µM (inactive) in the experiment on PC-3; 12.9 µM (inactive) with SK-OV-3; 35.5 µM (inactive) with EKVX; 5.81 µM (inactive) with A498; 1.28 µM (inactive) in the experiment with NCI-H23. Also, the GI50 in the experiment with A549 is 1.98 µM (inactive); with U-251, 4.93 µM (inactive); with ACHN, 7.31 µM (inactive); in the experiment on UACC-257, 1.58 µM (inactive); with T47D it was 13.6 µM (inactive); in the experiment on KM12 it was 2.5 µM (inactive). In the experiment with HOP-62, the GI50 is 2.78 µM (inactive).
Regarding `O=C(N/N=C/c1ccc([N+](=O)[O-])cc1)c1cccc2nc3ccccc3nc12`, the GI50 in the experiment with UO-31 was > 71.4 µM (inactive); with MCF7 it was > 100 µM (inactive); in the experiment on Hs-578T, 9.75 µM (inactive); in the experiment with DU-145 it was 65 µM (inactive); with SK-MEL-2, > 100 µM (inactive); in the experiment with NCI-H522, > 100 µM (inactive). Further, the GI50 with SF-268 is > 58.9 µM (inactive); in the experiment with PC-3, > 75.9 µM (inactive); in the experiment with SK-OV-3, > 56.9 µM (inactive); in the experiment on EKVX, > 100 µM (inactive); in the experiment on A498, > 100 µM (inactive); in the experiment with NCI-H23, 12.2 µM (inactive). In addition, the GI50 in the experiment with A549 is 1.24 µM (inactive); in the experiment with U-251, 41.5 µM (inactive); with ACHN it was > 38.5 µM (inactive); in the experiment with UACC-257, > 100 µM (inactive); in the experiment on T47D, > 100 µM (inactive); in the experiment with KM12 it was > 100 µM (inactive). In addition, the GI50 in the experiment with HOP-62 was 1.74 µM (inactive).
As to `Cc1cc(S(=O)(=O)Nc2nc(N)n(-c3ccccn3)n2)c(S)cc1Cl`, the GI50 with UO-31 is > 100 µM (inactive); in the experiment on MCF7, > 100 µM (inactive); with Hs-578T, 75 µM (inactive); with DU-145, > 100 µM (inactive); in the experiment with SK-MEL-2 it was > 100 µM (inactive); in the experiment on NCI-H522, > 100 µM (inactive). In addition, the GI50 in the experiment on SF-268, in the experiment with PC-3, with SK-OV-3, with EKVX, in the experiment with A498 and in the experiment with A549 was > 100 µM (inactive) each time. In addition, the GI50 in the experiment on U-251, in the experiment on ACHN, in the experiment on UACC-257, in the experiment on T47D, with KM12 and in the experiment on HOP-62 was > 100 µM (inactive) throughout.

The values are drawn from ChEMBL document CHEMBL1201862, “PubChem BioAssay data set” (2004).
